Reference: patent US9290496B2, “Purine derivatives” (PFIZER INC., priority 2013, dated 2016)
pIC50: −log10 of the molar value.

Assays:
Type in all cases: cell-based
EGFR del/T790M (PC9-DRH) = target: T1, EGFR del/T790M (PC9-DRH) (Homo sapiens, UniProt P00533, DEL746-750/T790M); assay: pEGFR Y1068 ELISA assay, PC9-DRH cells; settings: inhibition of phosphorylation of EGFR at Tyr1068; PC9-DRH cells (dacomitinib resistant); 2 hr compound incubation
T1 construct: detects endogenous levels of phospho-EGF Receptor (Tyr1068) protein; endogenous in cells; host or cells: PC9-DRH (dacomitinib-resistant derivative of PC9, generated in house)

[1] = target: T2, EGFR wildtype, endogenous (A549) (Homo sapiens, UniProt P00533); assay: pEGFR Y1068 ELISA assay, A549 cells; settings: inhibition of phosphorylation of EGFR at Tyr1068; A549 NSCLC cells; 2 hr compound incubation, then stimulated 10 min with EGF (40 ng/mL)
T2 construct: A549 (EGFR wildtype, endogenous); host or cells: A549 (stimulated with EGF)

[2] = target: T3, EGFR L858R+T790M, endogenous (NCI-H1975) (Homo sapiens, UniProt P00533, L858R/T790M); assay: pEGFR Y1068 ELISA assay, NCI-H1975 cells; settings: inhibition of phosphorylation of EGFR at Tyr1068; NCI-H1975 NSCLC cells; 2 hr compound incubation
T3 construct: NCI-H1975 (EGFR L858R+T790M, endogenous); host or cells: NCI-H1975
T3 sequence (P00533 25-1210 T790M/L858R): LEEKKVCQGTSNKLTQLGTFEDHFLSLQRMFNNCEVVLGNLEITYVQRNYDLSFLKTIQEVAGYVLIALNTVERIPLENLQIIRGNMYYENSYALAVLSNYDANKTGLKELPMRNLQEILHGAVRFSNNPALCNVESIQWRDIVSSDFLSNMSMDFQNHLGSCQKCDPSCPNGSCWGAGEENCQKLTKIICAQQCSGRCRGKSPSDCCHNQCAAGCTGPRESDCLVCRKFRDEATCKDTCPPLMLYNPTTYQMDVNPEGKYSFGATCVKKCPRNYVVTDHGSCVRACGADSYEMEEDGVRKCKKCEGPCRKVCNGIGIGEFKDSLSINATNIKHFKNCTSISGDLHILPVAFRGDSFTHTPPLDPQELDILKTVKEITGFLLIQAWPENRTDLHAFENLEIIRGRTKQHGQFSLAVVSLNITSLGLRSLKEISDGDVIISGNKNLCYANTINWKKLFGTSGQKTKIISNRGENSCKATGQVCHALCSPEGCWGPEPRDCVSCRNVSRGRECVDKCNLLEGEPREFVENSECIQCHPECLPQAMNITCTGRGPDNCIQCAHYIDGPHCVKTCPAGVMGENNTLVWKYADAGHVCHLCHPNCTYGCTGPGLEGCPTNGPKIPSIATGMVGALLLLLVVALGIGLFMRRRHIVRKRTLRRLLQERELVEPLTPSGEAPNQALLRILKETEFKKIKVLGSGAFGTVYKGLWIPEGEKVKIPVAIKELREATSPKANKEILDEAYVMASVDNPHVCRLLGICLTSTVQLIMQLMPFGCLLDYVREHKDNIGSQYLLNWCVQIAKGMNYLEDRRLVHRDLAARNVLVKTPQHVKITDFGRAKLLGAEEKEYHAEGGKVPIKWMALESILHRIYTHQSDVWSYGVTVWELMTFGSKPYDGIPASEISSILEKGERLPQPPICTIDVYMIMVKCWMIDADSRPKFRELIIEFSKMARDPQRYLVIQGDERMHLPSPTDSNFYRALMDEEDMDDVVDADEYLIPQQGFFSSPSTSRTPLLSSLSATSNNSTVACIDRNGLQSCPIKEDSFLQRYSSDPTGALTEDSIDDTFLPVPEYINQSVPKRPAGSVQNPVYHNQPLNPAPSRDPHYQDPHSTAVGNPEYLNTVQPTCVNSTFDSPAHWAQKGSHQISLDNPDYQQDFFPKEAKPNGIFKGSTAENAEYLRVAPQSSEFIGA
Protocol: Phosphorylation of EGFR at Y1068 was measured by PathScan® Phospho-EGF Receptor (Try1068) Sandwich ELISA kit (#7240, Cell Signaling Technology®, Danvers, Mass.). The PathScan® Phospho-EGF Receptor (Tyr1068) Sandwich ELISA Kit is a solid phase sandwich enzyme-linked immunosorbent assay (ELISA) that detects endogenous levels of phospho-EGF Receptor (Tyr1068) protein. […] All cells were cultured according to ATCC recommendations. A549, NCI-H1975, PC9, and NCI-H3255 cells were grown in RPMI media (Invitrogen, Carlsbad, Calif.) supplemented with 10% FBS (Sigma, St Louis, Mo.), and with 1% Penn/Strep (Invitrogen). PC9-DRH cells were grown in RPMI with 10% FBS and 1 μM dacomitinib.
Cells were plated at 40,000/well in complete culture media (50 μL/well) on the bottom of clear tissue culture treated microtiter plates (#3595, Corning Inc, Corning, N.Y.) and allowed to adhere overnight at 37° C., 5% CO2. The following day, compound dilution plates were prepared in 96 well clear V-bottom 0.5 mL polypropylene block plates (#3956, Corning, Inc). Each compound was prepared as a DMSO stock solution (10 mM). Compounds were tested in duplicate on each plate, with an 11-point serial dilution curve (1:3 dilution). Compound treatment (50 μL) was added from the compound dilution plate to the cell plate. […] Plates were then incubated for 2 hr at 37° C., 5% CO2. For A549 (EGFR wildtype) assay, cells were plated in full-serum (10%) media for 24 hr prior to compound treatment; cells were treated in full serum media as described and then stimulated for 10 min with EGF (40 ng/mL/starvation media, Invitrogen). Immediately prior to the end of the incubation, ice-cold lysis buffer was prepared (1× Cell Lysis Buffer (#9803, Cell Signaling Technology), 1 mM sodium orthovanadate (Na3VO4, #96508, Sigma), 1 mM phenylmethanesulfonyl fluoride (PMSF, 52332, CalBiochem/EMD Chemicals), complete Mini EDTA-free Protease Inhibitor Cocktail Tablet (1 tablet/10 mL, #11836170001, Roche, Indianapolis, Ind.), and PhosSTOP Phosphatase Inhibitor Cocktail Tablet (1 tablet/10 mL, #04906837001, Roche) in pure water. At the end of 2 hr, media was flicked off and cells were washed once with ice-cold 1 mM Na3VO4 in PBS (100 μL/well, Invitrogen). The wash was then flicked off and ice-cold lysis buffer was added to the cells (50 μL/well). The plate was shaken for 20-30 min at 4° C. to completely lyse the cells. Sample diluent (50 μL/well) was added to the ELISA plate, and the lysate (50 μL) was diluted into the sample diluent in each well of the ELISA plate. Plates were sealed and incubated overnight at 4° C. with shaking. The next day, wells were washed four times with 1× Wash Buffer; plates were taped on lint-free paper after the final wash prior to adding Add Detection Antibody (green, 100 μL/well) to each well and incubating for 1 hr at 37° C. After incubation, wells were washed as described. HRP-Linked secondary antibody (red, 100 μL/well) was added to each well and incubated for 30 min at 37° C. After incubation, the wells were washed as described. TMB Substrate (100 μL/well) was added to each well and the plate incubated for 10 min at 37° C. or 30 min at rt maximum. Stop Solution (100 μL/well) was added to each well at the end of the incubation and plates were shaken gently for a few seconds. Absorbance was read at 450 nm within 30 min after addition of Stop Solution on a PerkinElmer EnVision Excite Multilabel Reader Method for Absorbance or on a Molecular Devices SpectraMax^384 Reader for absorbance. Data were analyzed using a four-parameter fit in Microsoft Excel.

T1 sequence (P00533 with tags, fused parts or gaps DEL746-750/T790M): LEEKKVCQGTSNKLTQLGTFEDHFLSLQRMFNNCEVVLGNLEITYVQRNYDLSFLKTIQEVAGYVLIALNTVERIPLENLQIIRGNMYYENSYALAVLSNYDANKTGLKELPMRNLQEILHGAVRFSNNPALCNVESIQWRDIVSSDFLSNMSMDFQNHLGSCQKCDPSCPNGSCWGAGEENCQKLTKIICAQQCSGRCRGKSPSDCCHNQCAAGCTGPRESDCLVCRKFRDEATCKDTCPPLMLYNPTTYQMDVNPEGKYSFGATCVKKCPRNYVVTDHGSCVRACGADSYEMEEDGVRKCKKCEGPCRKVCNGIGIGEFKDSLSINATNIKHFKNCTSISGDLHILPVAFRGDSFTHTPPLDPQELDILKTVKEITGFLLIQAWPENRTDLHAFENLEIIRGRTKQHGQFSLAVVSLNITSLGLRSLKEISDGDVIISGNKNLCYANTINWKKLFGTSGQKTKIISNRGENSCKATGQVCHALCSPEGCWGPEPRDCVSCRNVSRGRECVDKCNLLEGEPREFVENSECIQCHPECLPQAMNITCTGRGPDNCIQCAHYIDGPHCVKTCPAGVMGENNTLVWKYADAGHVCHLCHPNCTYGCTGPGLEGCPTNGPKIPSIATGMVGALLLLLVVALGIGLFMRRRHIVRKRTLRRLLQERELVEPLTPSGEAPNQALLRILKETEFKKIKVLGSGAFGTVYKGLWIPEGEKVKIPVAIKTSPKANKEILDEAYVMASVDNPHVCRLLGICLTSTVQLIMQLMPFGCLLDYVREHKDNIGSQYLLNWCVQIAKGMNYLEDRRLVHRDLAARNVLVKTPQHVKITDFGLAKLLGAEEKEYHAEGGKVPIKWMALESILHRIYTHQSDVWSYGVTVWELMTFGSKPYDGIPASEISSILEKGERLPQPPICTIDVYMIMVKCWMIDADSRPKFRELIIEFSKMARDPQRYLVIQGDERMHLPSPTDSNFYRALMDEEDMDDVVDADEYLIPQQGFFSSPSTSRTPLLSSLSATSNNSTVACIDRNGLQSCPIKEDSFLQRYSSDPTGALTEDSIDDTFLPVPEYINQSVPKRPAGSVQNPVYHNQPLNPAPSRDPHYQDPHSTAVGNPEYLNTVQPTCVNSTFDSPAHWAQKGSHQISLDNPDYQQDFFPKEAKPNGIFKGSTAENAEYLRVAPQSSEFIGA
T2 sequence (P00533 25-1210): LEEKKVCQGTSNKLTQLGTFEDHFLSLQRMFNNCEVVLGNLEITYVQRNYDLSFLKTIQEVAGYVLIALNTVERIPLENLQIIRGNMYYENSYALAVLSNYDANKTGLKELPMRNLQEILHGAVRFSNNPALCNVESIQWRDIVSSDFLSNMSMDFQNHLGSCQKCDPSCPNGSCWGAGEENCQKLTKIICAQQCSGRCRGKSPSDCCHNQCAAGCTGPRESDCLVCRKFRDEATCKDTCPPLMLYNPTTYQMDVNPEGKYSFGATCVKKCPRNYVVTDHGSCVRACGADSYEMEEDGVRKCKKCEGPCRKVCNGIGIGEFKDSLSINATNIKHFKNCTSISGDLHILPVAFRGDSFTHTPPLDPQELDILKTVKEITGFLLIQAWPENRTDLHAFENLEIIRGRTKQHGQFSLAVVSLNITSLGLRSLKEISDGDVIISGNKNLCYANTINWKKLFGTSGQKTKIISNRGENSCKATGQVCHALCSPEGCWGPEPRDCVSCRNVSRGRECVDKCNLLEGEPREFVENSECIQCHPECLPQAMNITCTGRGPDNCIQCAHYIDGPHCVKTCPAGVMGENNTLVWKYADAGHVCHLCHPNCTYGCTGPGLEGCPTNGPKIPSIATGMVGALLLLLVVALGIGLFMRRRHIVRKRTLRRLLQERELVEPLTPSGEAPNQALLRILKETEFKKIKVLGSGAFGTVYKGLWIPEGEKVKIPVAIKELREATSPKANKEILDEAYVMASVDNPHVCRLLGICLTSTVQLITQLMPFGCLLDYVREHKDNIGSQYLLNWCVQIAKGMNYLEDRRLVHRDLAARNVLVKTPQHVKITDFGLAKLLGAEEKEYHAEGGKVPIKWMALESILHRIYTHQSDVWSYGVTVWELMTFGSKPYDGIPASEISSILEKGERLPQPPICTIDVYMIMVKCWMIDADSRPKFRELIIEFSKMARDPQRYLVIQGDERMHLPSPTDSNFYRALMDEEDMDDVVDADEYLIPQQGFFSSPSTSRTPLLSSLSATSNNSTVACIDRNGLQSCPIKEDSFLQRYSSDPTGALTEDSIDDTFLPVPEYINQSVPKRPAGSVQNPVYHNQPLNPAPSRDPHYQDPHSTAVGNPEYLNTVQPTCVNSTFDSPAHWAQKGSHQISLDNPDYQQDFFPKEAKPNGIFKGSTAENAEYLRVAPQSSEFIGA

`C=CC(=O)N[C@H]1CCN(c2nc(Nc3ccc(N4CCN(CC)CC4)cc3)c3ncn(C(C)C)c3n2)C1` [Example 40, (S)-N-(1-(6-((4-(4-ethylpiperazin-1-yl)phenyl)amino)-9-isopropyl-9H-purin-2-yl)pyrrolidin-3-yl)acrylamide] showed a pIC50 (EGFR del/T790M (PC9-DRH)) of 8.30, a pIC50 [1] of 7.13 and a pIC50 [2] of 8.10.
Work on `C=CC(=O)NC1(C)CN(c2nc(Nc3cnn(CCN(C)C)c3)c3ncn(C(C)C)c3n2)C1` [Example 42, N-(1-(6-((1-(2-(dimethylamino)ethyl)-1H-pyrazol-4-yl)amino)-9-isopropyl-9H-purin-2-yl)-3-methylazetidin-3-yl)acrylamide] yielded a pIC50 (EGFR del/T790M (PC9-DRH)) of 7.42, a pIC50 [1] of 5.87 and a pIC50 [2] of 7.59.
In the case of `C=CC(=O)N[C@H]1CCN(c2nc(Nc3cnn(CCN(C)C)c3)c3ncn(C(C)C)c3n2)C1` [Example 43, (S)-N-(1-(6-((1-(2-(dimethylamino)ethyl)-1H-pyrazol-4-yl)amino)-9-isopropyl-9H -purin-2-yl)pyrrolidin-3-yl)acrylamide], the pIC50 (EGFR del/T790M (PC9-DRH)) was 7.74, the pIC50 [1] was 5.83 and the pIC50 [2] was 7.13.
With `C=CC(=O)NC1(C)CN(c2nc(Nc3cnn(C4CCN(C)C4)c3)c3ncn(C(C)C)c3n2)C1` (stereo not drawn) [Example 44, N-(1-(9-isopropyl-6-((1-(1-methylpyrrolidin-3-yl)-1H-pyrazol-4-yl)amino)-9H-purin-2-yl)-3-methylazetidin-3-yl)acrylamide] the pIC50 (EGFR del/T790M (PC9-DRH)) was 8.15, the pIC50 [1] was 5.94 and the pIC50 [2] was 7.62.
In the case of `C=CC(=O)N[C@@H]1CN(c2nc(Nc3ccc(N4CCN(C)CC4)cc3)c3ncn(C(C)(C)C)c3n2)C[C@H]1F` [Example 52, N-((3R,4R)-1-(9-(tert-butyl)-6-((4-(4-methylpiperazin-1-yl)phenyl)amino)-9H-purin-2-yl)-4-fluoropyrrolidin-3-yl)acrylamide], the pIC50 (EGFR del/T790M (PC9-DRH)) was 8.22, the pIC50 [1] was ≤ 5.00 and the pIC50 [2] was 6.13.
With `C=CC(=O)NC1(C)CN(c2nc(Nc3cnn(C)c3)c3ncn(CC)c3n2)C1` [Example 56, N-(1-(9-ethyl-6-((1-methyl-1H-pyrazol-4-yl)amino)-9H-purin-2-yl)-3-methylazetidin-3-yl)acrylamide] the pIC50 (EGFR del/T790M (PC9-DRH)) was 8.70, the pIC50 [1] was 6.30 and the pIC50 [2] was 6.97.
Molecule `C=CC(=O)N1CCC[C@@H](Oc2nc(Nc3cnn(C)c3)c3ncn(C(C)C)c3n2)C1` [Example 57, (R)-1-(3((9-isopropyl-6-((1-methyl-1H-pyrazol-4-yl)amino)-9H-purin-2-yl)oxy)piperidin-1-yl)prop-2-en-1-one] has a pIC50 (EGFR del/T790M (PC9-DRH)) of 7.36, a pIC50 [1] of 5.52 and a pIC50 [2] of 7.05.
Molecule `C=CC(=O)N[C@@H]1CN(c2nc(Nc3cnn(C)c3)c3ncn(C(C)C)c3n2)CC1(F)F` [Example 74, (R)—N-(4,4-difluoro-1-(9-isopropyl-6-((1-methyl-1H-pyrazol-4-yl)amino)-9H-purin-2-yl)pyrrolidin-3-yl)acrylamide] has a pIC50 (EGFR del/T790M (PC9-DRH)) of 8.70, a pIC50 [1] of 7.31 and a pIC50 [2] of 8.30.
For `C=CC(=O)N[C@@H]1CN(c2nc(Nc3cn(C)nc3C)c3ncn(CC)c3n2)C[C@H]1F` [Example 76, N-((3R,4R)-1-(6-((1,3-dimethyl-1H-pyrazol-4-yl)amino)-9-ethyl-9H-purin-2-yl)-4-fluoropyrrolidin-3-yl)acrylamide], the pIC50 (EGFR del/T790M (PC9-DRH)) was 8.70, the pIC50 [1] was 6.40 and the pIC50 [2] was 7.52.
`C=CC(=O)N[C@@H]1CN(c2nc(Nc3cn(C4CCN(C)C4)nc3C)c3ncn(CC)c3n2)C[C@H]1F` (stereo partly drawn) [Example 80, N-((3R,4R)-1-(9-ethyl-6-((3-methyl-1-(1-methylpyrrolidin-3-yl)-1H-pyrazol-4-yl)amino)-9H-purin-2-yl)-4-fluoropyrrolidin-3-yl)acrylamide] showed a pIC50 (EGFR del/T790M (PC9-DRH)) of 8.00, a pIC50 [1] of 6.37 and a pIC50 [2] of 7.66.
